Source: US20250388605A1, “HETEROBIFUNCTIONAL COMPOUNDS AND METHODS OF TREATING DISEASE” (Halda Therapeutics OpCo, Inc., priority 2022, published 2025)

Key:
[1] = test system: T-Rex 293 cell line SC3 cells having increased expression of androgen receptor protein due to exposure to doxycycline; experiment: Cellular growth inhibition, T-Rex 293 SC3 cells with doxycycline (increased androgen receptor expression), CellTiter-Glo; assay type: cell-based; settings: T-Rex 293 SC3 cells with 10 ng/mL doxycycline (increased androgen receptor expression), 72 hours, CellTiter-Glo 2.0
Summary of the method: (§1)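 Growth inhibition is measured in an inducible AR-expressing T-Rex 293 clone, SC3, cultured with or without 10 ng/mL doxycycline in hormone-depleted medium. Test compounds are applied for 72 hours. GI50 values derive from CellTiter-Glo 2.0 signal fitted by four-parameter regression.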

[2] = test system: T-Rex 293 cell line SC3 cells lacking increased expression of androgen receptor protein; experiment: Cellular growth inhibition, T-Rex 293 SC3 cells without doxycycline (no increased androgen receptor expression), CellTiter-Glo; assay type: cell-based; settings: T-Rex 293 SC3 cells not exposed to doxycycline (no increased androgen receptor expression), 72 hours
Summary of the method: as §1

[3] = test system: VCaP cells; experiment: Cellular growth inhibition assay for VCaP cells, CellTiter-Glo; assay type: cell-based, human; settings: 72 hours
Summary of the method: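 GI50 values come from four-parameter curve fits of luminescence data normalized to a zero baseline. Compound, in medium with 0.5% DMSO, was added one day after plating and left for 72 h before CellTiter-Glo 2.0 addition.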

[4] = test system: T47D cells; experiment: Cellular Growth Inhibition Assay for T47D Cells (CellTiter-Glo); assay type: cell-based, human; settings: 72 hours
Method: Exemplary compounds were tested for ability to inhibit the proliferation of T47D cells. T47D cells are a commercially available human breast cancer cell line.
T47D cells were purchased from American Type Cell Culture (ATCC Cat #HTB-133) and then seeded on poly-D-lysine coated, black clear-bottom 384-well plates at 3000/well in 25 μL Dulbecco's Modified Eagle Medium (DMEM) supplemented with 10% w/w Fetal bovine serum (FBS), 0.2 units/mL recombinant human insulin (Gibco Cat #12585014), and 1% w/w Pen-Strep. Pen-Strep is a commercially available mixture of penicillin G and streptomycin, which is used in mammalian cell culture media to prevent bacterial contamination. Dulbecco's Modified Eagle Medium (DMEM) supplemented with 10% w/w fetal bovine serum (FBS), 0.2 units/mL recombinant human insulin, and 1% w/w Pen-Strep is herein referred to as Treatment Medium. Following seeding of cells in the plates, the plates were spun at 300×g for 30 seconds, then equilibrated to room temperature for 30 minutes, and then deposited in a humidified tissue culture incubator maintained at 37° C. with 5% CO2.
At 24 hours after seeding of the cells, dilutions of test compound were prepared in DMSO and dissolved in Treatment Medium, to achieve a final DMSO concentration of 0.5% w/w, thereby providing the Test Compound Solution. A 25 μL aliquot of the Test Compound Solution was added to cells in the well plates. An equal volume of a solution containing DMSO and Treatment Medium was used as a negative control. Following treatment of cells with Test Compound Solution or said equal volume of a solution containing DMSO and Treatment Medium, the plates were spun at 300×g for 30 seconds, and then left in an incubator for 72 hours.
At the end of the treatment duration, cell viability was quantified with CellTiter-Glo 2.0 reagent (Promega Cat #G9243). For this purpose, plates were equilibrated to room temperature for 30 minutes, and then 25 μL of CellTiter-Glo 2.0 reagent was added to cells in the plate wells. Plates were then agitated on a shaker for two minutes at 500 rpm and subsequently incubated at room temperature for 10 minutes. Following incubation, the plates were spun at 3000×g for 30 seconds, then sealed with an optical adhesive cover, and luminescence readings were measured with an EnVision Plate Reader (Perkin Elmer).
Data was normalized using zero luminescence for baseline. A four-parameter non-linear regression curve fit was applied to dose-response data in GraphPad Prism data analysis software to determine the half-maximal growth inhibitory concentration (GI50) for each test compound.

GI50 ([4]; Homo sapiens) [nM]	GI50 [4] [nM]	SMILES	other results
	< 500	Cn1cc(-c2cc(C(C)(C)O)ccc2Oc2ccc(C3(NCC4CCN(c5ncc(C(=O)N[C@H]6C(C)(C)[C@H](Oc7ccc(C#N)c(Cl)c7)C6(C)C)cn5)CC4)COC3)cc2)c2cc[nH]c2c1=O [Compound I-256]	GI50 [3]: < 500 nM
< 500		Cn1cc(-c2cc(C(C)(C)O)ccc2Oc2ccc(N3CC(CC4CCN(c5cnc(C(=O)N[C@H]6C(C)(C)[C@H](Oc7ccc(C#N)c(F)c7)C6(C)C)cn5)CC4)C3)cc2)c2cc[nH]c2c1=O [Compound I-383]	
	< 500	COc1cc(Oc2ccc(C(C)(C)O)cc2-c2cn(C)c(=O)c3[nH]ccc23)ccc1N1CC(CC2CCN(c3cnc(C(=O)N[C@H]4C(C)(C)[C@H](Oc5ccc(C#N)c(Cl)c5)C4(C)C)cn3)CC2)C1 [Compound I-394]	
	< 500	Cn1cc(-c2cc(C(C)(C)O)ccc2Oc2ccc(N3CC(C4CCN(c5ncc(C(=O)N[C@H]6C(C)(C)[C@H](Oc7ccc(C#N)c(C(F)(F)F)c7)C6(C)C)cn5)CC4)C3)cc2)c2cc[nH]c2c1=O [Compound I-389]	
	< 500	Cn1cc(-c2cc(C(C)(C)O)ccc2Oc2cccc(N3CC(CC4CCN(c5ncc(C(=O)N[C@H]6C(C)(C)[C@H](Oc7ccc(C#N)c(Cl)c7)C6(C)C)cn5)CC4)C3)c2)c2cc[nH]c2c1=O [Compound I-376]	
	< 500	Cn1cc(-c2ccccc2Oc2ccc(N3CC(C4CCN(c5ccc(C(=O)N[C@H]6C(C)(C)[C@H](Oc7ccc(C#N)c(Cl)c7)C6(C)C)nc5)CC4)C3)cc2)c2cc[nH]c2c1=O [Compound I-386]	
> 3000		Cn1cc(-c2cc(C(C)(C)O)ccc2Oc2ccc(OC3CC4(C3)CC3(CCN(c5ccc(C(=O)N[C@H]6C(C)(C)[C@H](Oc7ccc(C#N)c(Cl)c7)C6(C)C)nc5)CC3)C4)cc2)c2cc[nH]c2c1=O [Compound I-367]	
< 500		COc1cc(N2CC(CC3CCN(c4cnc(C(=O)NC5C(C)(C)C(Oc6ccc(C#N)c(Cl)c6)C5(C)C)cn4)CC3)C2)ccc1Oc1ccc(C(C)(C)O)cc1-c1cn(C)c(=O)c2[nH]ccc12 (stereo not shown) [Compound I-392, N-[3-(3-chloro-4-cyano-phenoxy)-2,2,4,4-tetramethyl-cyclobutyl]-5-[4-[[1-[4-[4-(1-hydroxy-1-methyl-ethyl)-2-(6-methyl-7-oxo-1H-pyrrolo[2,3-c]pyridin-4-yl)phenoxy]-3-methoxy-phenyl]azetidin-3-yl]methyl]-1-piperidyl]pyrazine-2-carboxamide]	
	< 500	Cn1cc(-c2cc(C(C)(C)O)ccc2Oc2ccc(N3CC(C4CCCN(c5ncc(C(=O)N[C@H]6C(C)(C)[C@H](Oc7ccc(C#N)c(Cl)c7)C6(C)C)cn5)CCC4)C3)cc2)c2cc[nH]c2c1=O [Compound I-362]	
	> 3000	Cn1cc(-c2cc(C(C)(C)O)ccc2Oc2ccccc2)c2cc(C(=O)NC3CC(CC4CCN(c5ccc(C(=O)N[C@H]6C(C)(C)[C@H](Oc7ccc(C#N)c(Cl)c7)C6(C)C)nc5)CC4)C3)[nH]c2c1=O (stereo partly shown) [Compound I-378]	

Second part, the molecule before the results:

SMILES	GI50 ([4]; Homo sapiens) [nM]	GI50 [4] [nM]	other results
Cn1cc(-c2cc([N+](=O)[O-])ccc2Oc2cccc(OCCOC3CCN(c4ncc(C(=O)N[C@H]5C(C)(C)[C@H](Oc6ccc(C#N)c(Cl)c6)C5(C)C)cn4)CC3)c2)c2cc[nH]c2c1=O [Compound I-63, N-((1r, 3r)-3-(3-chloro-4-cyanophenoxy)-2,2,4,4-tetramethylcyclobutyl)-2-(4-(2-(3-(2-(6-methyl-7-oxo-6,7-dihydro-1H-pyrrolo[2,3-c]pyridin-4-yl)-4-nitrophenoxy)phenoxy)ethoxy)piperidin-1-yl)pyrimidine-5-carboxamide]	500 to 1500		GI50 [1]: < 500 nM; GI50 [2]: > 3000 nM; GI50 ([3]; Homo sapiens): < 500 nM
Cn1cc(-c2cc(S(C)(=O)=O)ccc2Oc2cccc(N3CC(OC4CCN(c5ncc(C(=O)N[C@H]6C(C)(C)[C@H](Oc7ccc(C#N)c(Cl)c7)C6(C)C)cn5)CC4)C3)c2F)c2cc[nH]c2c1=O [Compound I-191]		< 500	GI50 [1]: < 500 nM; GI50 [2]: < 500 nM; GI50 [3]: < 500 nM
Cn1cc(-c2cc(C(C)(C)O)ccc2Oc2ccc(CCC3CN(c4ncc(C(=O)N[C@H]5C(C)(C)[C@H](Oc6ccc(C#N)c(Cl)c6)C5(C)C)cn4)CCO3)cc2)c2cc[nH]c2c1=O (stereo partly shown) [Compound I-305]	< 500		GI50 [1]: < 500 nM; GI50 [2]: > 3000 nM; GI50 ([3]; Homo sapiens): < 500 nM
Cn1cc(-c2cc(C(C)(C)O)ccc2OC2CC(OC3CCN(c4ncc(C(=O)NC5C(C)(C)C(Oc6ccc(C#N)c(Cl)c6)C5(C)C)cn4)CC3)C2)c2cc[nH]c2c1=O (stereo not shown) [Compound I-274, N-[3-(3-chloro-4-cyano-phenoxy)-2,2,4,4-tetramethyl-cyclobutyl]-2-[4-[3-[4-(1-hydroxy-1-methyl-ethyl)-2-(6-methyl-7-oxo-1H-pyrrolo[2,3-c]pyridin-4-yl)phenoxy]cyclobutoxy]-1-piperidyl]pyrimidine-5-carboxamide]	< 500		GI50 [1]: < 500 nM; GI50 [2]: < 500 nM; GI50 ([3]; Homo sapiens): < 500 nM
Cn1cc(-c2cc(C(C)(C)O)ccc2OC(C)(C)CN2CC(OC3CCN(c4ncc(C(=O)N[C@H]5C(C)(C)[C@H](Oc6ccc(C#N)c(Cl)c6)C5(C)C)cn4)CC3)C2)c2cc[nH]c2c1=O [Compound I-254, N-[3-(3-chloro-4-cyano-phenoxy)-2,2,4,4-tetramethyl-cyclobutyl]-2-[4-[1-[2-[4-(1-hydroxy-1-methyl-ethyl)-2-(6-methyl-7-oxo-1H-pyrrolo[2,3-c]pyridin-4-yl)phenoxy]-2-methyl-propyl]azetidin-3-yl]oxy-1-piperidyl]pyrimidine-5-carboxamide]	> 3000		GI50 ([3]; Homo sapiens): < 500 nM
Cn1cc(-c2cc(C(C)(C)O)ccc2Oc2ccc(F)c(CCCN3CC4(C3)CN(c3ncc(C(=O)N[C@H]5C(C)(C)[C@H](Oc6ccc(C#N)c(Cl)c6)C5(C)C)cn3)C4)c2F)c2cc[nH]c2c1=O [Compound I-247]		< 500	GI50 [3]: < 500 nM
Cn1cc(-c2cc(C(C)(C)O)ccc2OC2CC3CC2CC3OC2CCN(c3ncc(C(=O)N[C@H]4C(C)(C)[C@H](Oc5ccc(C#N)c(Cl)c5)C4(C)C)cn3)CC2)c2cc[nH]c2c1=O (stereo partly shown) [Compound I-253, N-[3-(3-chloro-4-cyano-phenoxy)-2,2,4,4-tetramethyl-cyclobutyl]-2-[4-[5-[4-(1-hydroxy-1-methyl-ethyl)-2-(6-methyl-7-oxo-1H-pyrrolo[2,3-c]pyridin-4-yl)phenoxy]norbornan-2-yl]oxy-1-piperidyl]pyrimidine-5-carboxamide]	500 to 1500		GI50 ([3]; Homo sapiens): < 500 nM
CC(C)c1ccc(Oc2cccc(OCCC3CCN(c4ncc(C(=O)N[C@H]5C(C)(C)[C@H](Oc6ccc(C#N)c(Cl)c6)C5(C)C)cn4)CC3)c2)c(-c2cn(C)c(=O)c3[nH]ccc23)c1 [Compound I-141]		500 to 1500	
Cc1cc(Oc2ccc(C(C)(C)O)cc2-c2cn(C)c(=O)c3[nH]ccc23)cc(C)c1N1CC(CC2CCN(c3cnc(C(=O)N[C@H]4C(C)(C)[C@H](Oc5ccc(C#N)c(Cl)c5)C4(C)C)cn3)CC2)C1 [Compound I-391, N-[3-(3-chloro-4-cyano-phenoxy)-2,2,4,4-tetramethyl-cyclobutyl]-5-[4-[[1-[4-[4-(1-hydroxy-1-methyl-ethyl)-2-(6-methyl-7-oxo-1H-pyrrolo[2,3-c]pyridin-4-yl)phenoxy]-2,6-dimethyl-phenyl]azetidin-3-yl]methyl]-1-piperidyl]pyrazine-2-carboxamide]	< 500		
Cn1cc(-c2cc(C(C)(C)O)ccc2OC(CCCCN2CCN(c3ncc(C(=O)N[C@H]4C(C)(C)[C@H](Oc5ccc(C#N)c(Cl)c5)C4(C)C)cn3)CC2)C2CC2)c2cc[nH]c2c1=O (stereo partly shown) [Compound I-252]		500 to 1500	GI50 [3]: < 500 nM
Cn1cc(-c2cc(C(C)(C)O)ccc2Oc2cccc(CC3CCN(c4ncc(C(=O)N[C@H]5C(C)(C)[C@H](Oc6ccc(C#N)c(Cl)c6)C5(C)C)cn4)CC3)c2)c2cc[nH]c2c1=O [Compound I-374]		500 to 1500	
CCS(=O)(=O)c1ccc(Oc2cccc(CCCC3CCN(c4ncc(C(=O)N[C@H]5C(C)(C)[C@H](Oc6ccc(C#N)c(Cl)c6)C5(C)C)cn4)CC3)c2)c(-c2cn(C)c(=O)c3[nH]ccc23)c1 [Compound I-248]		< 500	GI50 [3]: 500 to 1500 nM
